Laboratory results reported in EP0672658B1, “Antithrombotic agents” (priority 1994, dated 1995).
Structures can show the parent of a compound that is named as a salt.

What was measured:
human or animal plasma [1] = assay: Anticoagulation determination in plasma: activated partial thromboplastin time (APTT); format: biochemical; conditions: concentration doubling activated partial thromboplastin time
Procedure: (§1) Dog plasma and rat plasma is obtained from conscious mixed-breed hounds (either sex, Hazelton-LRE, Kalamazoo, Michigan, U.S.A.) or from anesthetized male Sprague-Dawley rats (Harlan Sprague-Dawley, Inc., Indianapolis, Indiana, U.S.A.) by venipuncture into 3.8 percent citrate. Fibrinogen is prepared from in-date ACD human blood as the fraction I-2 according to previous procedures and specifications. Smith, Biochem. J., 185, 1-11 (1980); and Smith, et al., Biochemistry, 11, 2958-2967 (1972). Human fibrinogen is also purchased as 98 percent pure/plasmin free from American Diagnostica, Greenwich, Connecticut. Coagulation reagents ACTIN, Thromboplastin, and Human plasma are from Baxter Healthcare Corp., Dade Division, Miami, Florida. Bovine thrombin from Parke-Davis (Ann Detroit, Michigan) is used for coagulation assays in plasma.
(§2) Coagulation assay procedures are as previously described. Smith, et al., Thrombosis Research, 50, 163-174 (1988). A CoAScreener coagulation instrument (American LABor, Inc.) is used for all coagulation assay measurements. The prothrombin time (PT) is measured by adding 0.05 mL saline and 0.05 mL Thromboplastin-C reagent to 0.05 mL test plasma. The activated partial thromboplastin time (APTT) is measured by incubation of 0.05 mL test plasma with 0.05 mL Actin reagent for 120 seconds followed by 0.05 mL CaCl2 (0.02 M). The thrombin time (TT) is measured by adding 0.05 mL saline and 0.05 mL thrombin (10 NIH units/mL) to 0.05 mL test plasma. The compounds of Formula I are added to human or animal plasma over a wide range of concentrations to determine prolongation effects on the APTT, PT, and TT assays. Linear extrapolations are performed to estimate the concentrations required to double the clotting time for each assay.

Human Thrombin = Human Thrombin (Homo sapiens, UniProt P00734); assay: biochemical; conditions: read-out: Kass Human Thrombin (converted)
factor Xa = factor Xa (Homo sapiens, UniProt P00742); assay: biochemical; conditions: read-out: Kass Xa (converted)
Sequence of factor Xa (P00742 235-488 limits assumed): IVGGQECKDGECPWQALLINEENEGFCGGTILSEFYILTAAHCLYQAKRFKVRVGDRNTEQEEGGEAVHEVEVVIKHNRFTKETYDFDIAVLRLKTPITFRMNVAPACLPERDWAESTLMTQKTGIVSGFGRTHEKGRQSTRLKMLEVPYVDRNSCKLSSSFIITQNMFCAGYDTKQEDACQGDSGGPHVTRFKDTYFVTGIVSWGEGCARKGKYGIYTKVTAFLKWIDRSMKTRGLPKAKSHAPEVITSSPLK
Sequence of factor Xa (P00742 41-179 partner limits assumed): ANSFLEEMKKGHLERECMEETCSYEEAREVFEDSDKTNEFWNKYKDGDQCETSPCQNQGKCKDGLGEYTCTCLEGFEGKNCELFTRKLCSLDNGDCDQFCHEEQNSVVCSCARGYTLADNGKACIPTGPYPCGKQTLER
Procedure: (§3) By substantially following the procedures described above for human thrombin, and using other human blood coagulation system serine proteases and proteases of the fibrinolytic system with the appropriate chromogenic substrates, identified below, selectivity of the compounds of the present invention with respect to the coagulation factor serine proteases and with respect to the fibrinolytic system serine proteases are evaluated as well as their substantial lack of interference with serine proteases of the fibrinolytic system. Thrombin inhibitors preferably should spare fibrinolysis induced by urokinase, tissue plasminogen activator (t-PA) and streptokinase. This would be important to the therapeutic use of such agents as an adjunct to streptokinase, t-PA or urokinase thrombolytic therapy and to the use of such agents as an endogenous fibrinolysis-sparing (with respect to t-PA and urokinase) antithrombotic agent. In addition to the lack of interference with the amidase activity of the fibrinolytic proteases, such fibrinolytic system sparing can be studied by the use of human plasma clots and their lysis by the respective fibrinolytic plasminogen activators.
(§4) Human factors X, Xa, IXa, XIa, and XIIa are purchased from Enzyme Research Laboratories, South Bend, Indiana; human urokinase from Leo Pharmaceuticals, Denmark; and recombinant activated Protein C (aPC) is prepared at Eli Lilly and Co. substantially according to U.S. Patent 4,981,952. Chromogenic substrates: N-Benzoyl-Ile-Glu-Gly-Arg-p-nitroanilide (for factor Xa); N-Cbz-D-Arg-Gly-Arg-p-nitroanilide (for factor IXa assay as the factor Xa substrate); Pyroglutamyl-Pro-Arg-p-nitroanilide (for Factor XIa and for aPC); H-D-Pro-Phe-Arg-p-nitroanilide (for factor XIIa); and Pyroglutamyl-Gly-Arg-p-nitroanilide (for urokinase); are purchased from KabiVitrum, Stockholm, Sweden, or from Midwest Biotech, Fishers, Indiana. Bovine trypsin is purchased from Worthington Biochemicals, Freehold, New Jersey, and human plasma kallikrein from Kabi Vitrum, Stockholm, Sweden. Chromogenic substrate H-D-Pro-Phe-Arg-p-nitroanilide for plasma kallikrein is purchased from Kabi Vitrum, Stockholm, Sweden. N-Benzoyl-Phe-Val-Arg-p-nitroanilide, the substrate for human thrombin and for trypsin, is synthesized according to procedures described above for the compounds of the present invention, using known methods of peptide coupling from commercially available reactants or purchased from Midwest Biotech, Fishers, Indiana.

human or animal plasma [2] = assay: Anticoagulation determination in plasma: thrombin time (TT); format: biochemical; conditions: concentration doubling thrombin time
Procedure: as §1, §2

human or animal plasma [3] = assay: Anticoagulation determination in plasma: prothrombin time (PT); format: biochemical; conditions: concentration doubling prothrombin time
Procedure: as §1, §2

Trypsin = biological target: T1, Trypsin (Bos taurus, UniProt P00760); assay: biochemical; set-up: species or system Bovine; conditions: read-out: Kass Trypsin (converted)
T1 sequence (P00760 24-246): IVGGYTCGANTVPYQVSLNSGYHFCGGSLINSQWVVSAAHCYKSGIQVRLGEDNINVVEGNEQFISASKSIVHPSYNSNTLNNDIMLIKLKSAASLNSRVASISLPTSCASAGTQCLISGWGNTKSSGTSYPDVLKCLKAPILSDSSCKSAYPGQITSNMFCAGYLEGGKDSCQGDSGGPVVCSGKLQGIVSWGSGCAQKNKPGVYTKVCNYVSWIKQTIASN
Procedure: as §3, §4

| SMILES | Human Plasma Anticoagulation 2x Clotting time (ng/mL) APTT (human or animal plasma [1]) | Kd (Human Thrombin) [nM] | Kd (factor Xa) [nM] | Human Plasma Anticoagulation 2x Clotting time (ng/mL) TT (human or animal plasma [2]) [ng/mL] | Human Plasma Anticoagulation 2x Clotting time (ng/mL) PT (human or animal plasma [3]) | Kd (Trypsin) [nM] |
| --- | --- | --- | --- | --- | --- | --- |
| CCC(CC)C(=O)N[C@@H](CCS(C)(=O)=O)C(=O)N1CCC[C@H]1C(=O)NCc1ccc(C(=N)N)cc1 [Example 91, (C2H5)2CHCO-Met(O2)-Pro-p-NHCH2C6H4C(NH)NH2·HCl] | 3,000 ng/mL | 278 | 143000 | 63 | 3,500 ng/mL | – |
| N=C(N)c1ccc(CNC(=O)CN(CCc2ccccc2)C(=O)CNCC(=O)O)cc1 [Example 89, HOOCCH2-Gly-N-C6H5CH2CH2Gly-p-NHCH2C6H4C(NH)NH2·HCl] | 51,000 ng/mL | 7140 | 14100 | 570 | 37,000 ng/mL | – |
| CCC(CC)C(=O)N[C@@H](CCC(=O)O)C(=O)N1CCC[C@H]1C(=O)NCc1ccc(C(=N)N)cc1 [Example 90, (C2H5)2CHCO-Glu-Pro-p-NHCH2C6H4C(NH)NH2·HCl] | 14,500 ng/mL | 1640 | 500000 | 330 | 14,600 ng/mL | – |
| N=C(N)c1ccc(CNC(=O)[C@@H]2CCCN2C(=O)[C@H](NCC(=O)O)C2CCCCC2)cc1 [Example 86, HOOCCH2-D-Chg-Pro-p-NHCH2C6H4C(NH)NH2·HCl] | 81 ng/mL | 5 | 1590 | 4 | 180 ng/mL | – |
| CCS(=O)(=O)N[C@H](CC1CCCCC1)C(=O)N1CCC[C@H]1C(=O)NCc1ccnc(N)c1 [Example 83, EtSO2-D-Cha-Pro-4-NHCH2-2-aminopyridine·HCl] | 1,000 ng/mL | 417 | – | 91 | 1,300 ng/mL | 33300 |
| N=C(N)c1ccc(CNC(=O)[C@@H]2CCCN2C(=O)[C@@H](CC2CCCCC2)NCC(=O)O)nc1 [Example 66, HO2CCH2-D-Cha-Pro-2-NHCH2-5-amidinopyridine·HCl] | 180 ng/mL | 8.33 | – | 7.9 | 270 ng/mL | 217 |
| N=C(N)c1ccc(CNC(=O)[C@@H]2CCCN2C(=O)[C@@H](CC2CCCCC2)NCCCC(=O)O)cc1 [Example 85, HOOCCH2CH2CH2-D-Cha-Pro-p-NHCH2C6H4C(NH)NH2·HCl] | 100 ng/mL | 3.77 | – | 4.9 | 197 ng/mL | 32.5 |
| N=C(N)c1ccc(CNC(=O)[C@@H]2CCCN2C(=O)[C@@H](CCC2CCCCC2)NCC(=O)O)cc1 [Example 88, HOOCCH2-D-hCha-Pro-p-NHCH2C6H4C(NH)NH2·HCl] | 100 ng/mL | 2.44 | 256 | 4 | 200 ng/mL | – |
| N=C(N)c1ccc(CNC(=O)[C@@H]2CCCN2C(=O)[C@@H](CCc2ccccc2)NCC(=O)O)cc1 [Example 87, HOOCCH2-D-hPhe-Pro-p-NHCH2C6H4C(NH)NH2·HCl] | 260 ng/mL | 33.3 | 400 | 9 | 310 ng/mL | – |
| NCc1ccc(CNC(=O)[C@@H]2CCCN2C(=O)[C@@H](CC2CCCCC2)NCC(=O)O)cc1 [Example 78, HO2CCH2-D-Cha-Pro-4-NHCH2C6H4CH2NH2·HCl] | 430 ng/mL | 90.9 | – | 46 | 760 ng/mL | 116 |
